Reference: ChEMBL document CHEMBL1201862, “PubChem BioAssay data set” (2004)
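Dose response: 5 concentrations. Exposure: 48 h. Format: 96-well plates. Endpoint: linear interpolation; highest concentration if not reached. GI50 marks 50% less growth.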 Activity calls are given as the source filed them. No stated cut-off is given here; in the data, active = GI50 up to about 1.1 µM and inactive = higher.

Key:
Assay in all cases: NCI anticancer screen, dose series, 48 h
T47D = test system: T47D
UACC-257 = test system: UACC-257
TK-10 = test system: TK-10
Malme-3M = test system: Malme-3M
DU-145 = test system: DU-145
SW-620 = test system: SW-620
NCI-H460 = test system: NCI-H460
CCRF-CEM = test system: CCRF-CEM
SK-OV-3 = test system: SK-OV-3
HL-60 = test system: HL-60
SNB-78 = test system: SNB-78
OVCAR-3 = test system: OVCAR-3
DMS-273 = test system: DMS-273
M19-MEL = test system: M19-MEL
SR = test system: SR
IGROV-1 = test system: IGROV-1
MDA-MB-231 = test system: MDA-MB-231
HCC 2998 = test system: HCC 2998
M14 = test system: M14
HOP-92 = test system: HOP-92
SF-268 = test system: SF-268
U-251 = test system: U-251
NCI-H226 = test system: NCI-H226
LOX IMVI = test system: LOX IMVI
SF-295 = test system: SF-295
HT-29 = test system: HT-29
OVCAR-5 = test system: OVCAR-5
XF498 = test system: XF498
CAKI-1 = test system: CAKI-1
DLD-1 = test system: DLD-1
HOP-18 = test system: HOP-18
K562 = test system: K562
KM12 = test system: KM12
MDA-N = test system: MDA-N
LXFL 529 = test system: LXFL 529
A549 = test system: A549
COLO 205 = test system: COLO 205
RPMI-8226 = test system: RPMI-8226
HOP-62 = test system: HOP-62
SF-539 = test system: SF-539
NCI-H522 = test system: NCI-H522
SNB-75 = test system: SNB-75
SN12C = test system: SN12C
A498 = test system: A498
786-0 = test system: 786-0
MOLT-4 = test system: MOLT-4
RXF 393 = test system: RXF 393
MCF7 = test system: MCF7
SK-MEL-2 = test system: SK-MEL-2
BT-549 = test system: BT-549
EKVX = test system: EKVX
SK-MEL-28 = test system: SK-MEL-28
DMS-114 = test system: DMS-114
ACHN = test system: ACHN
MDA-MB-435 = test system: MDA-MB-435
HCT-116 = test system: HCT-116
Hs-578T = test system: Hs-578T
OVCAR-4 = test system: OVCAR-4
PC-3 = test system: PC-3
HCT-15 = test system: HCT-15
OVCAR-8 = test system: OVCAR-8
SNB-19 = test system: SNB-19
KM-20L2 = test system: KM-20L2
NCI/ADR-RES = test system: NCI/ADR-RES
SK-MEL-5 = test system: SK-MEL-5
UO-31 = test system: UO-31
UACC-62 = test system: UACC-62
NCI-H23 = test system: NCI-H23

C=C1C(=O)OC2CC3(C)OC3CC/C(C)=C/C(OC(C)=O)C12 (stereo not drawn)
GI50 (T47D): 3.76 µM (inactive) | GI50 (UACC-257): 9.64 µM (inactive) | GI50 (TK-10): 3.61 µM (inactive) | GI50 (Malme-3M): 2.55 µM (inactive) | GI50 (DU-145): 15.1 µM (inactive) | GI50 (SW-620): 1.72 µM (inactive) | GI50 (NCI-H460): 15.4 µM (inactive) | GI50 (CCRF-CEM): 2.12 µM (inactive) | GI50 (SK-OV-3): 20 µM (inactive) | GI50 (HL-60): 1.41 µM (inactive) | GI50 (SNB-78): 9.44 µM (inactive) | GI50 (OVCAR-3): 10.5 µM (inactive) | GI50 (DMS-273): 14.9 µM (inactive) | GI50 (M19-MEL): 8.04 µM (inactive) | GI50 (SR): 3.07 µM (inactive) | GI50 (IGROV-1): 17.1 µM (inactive) | GI50 (MDA-MB-231): 12.4 µM (inactive) | GI50 (HCC 2998): 16.9 µM (inactive) | GI50 (M14): 3.32 µM (inactive) | GI50 (HOP-92): 1.82 µM (inactive) | GI50 (SF-268): 17 µM (inactive) | GI50 (U-251): 18.6 µM (inactive) | GI50 (NCI-H226): 7.45 µM (inactive) | GI50 (LOX IMVI): 5.22 µM (inactive) | GI50 (SF-295): 14 µM (inactive) | GI50 (HT-29): 4.15 µM (inactive) | GI50 (OVCAR-5): 8.51 µM (inactive) | GI50 (XF498): 2 µM (inactive) | GI50 (CAKI-1): 2.13 µM (inactive) | GI50 (DLD-1): 2.75 µM (inactive) | GI50 (HOP-18): 10.4 µM (inactive) | GI50 (K562): 2.47 µM (inactive) | GI50 (KM12): 15.1 µM (inactive) | GI50 (MDA-N): 6.12 µM (inactive) | GI50 (LXFL 529): 2.14 µM (inactive) | GI50 (A549): 17.3 µM (inactive) | GI50 (COLO 205): 1.75 µM (inactive) | GI50 (RPMI-8226): 2.13 µM (inactive) | GI50 (HOP-62): 18.7 µM (inactive) | GI50 (SF-539): 6.37 µM (inactive) | GI50 (NCI-H522): 1.04 µM (active) | GI50 (SNB-75): 8.77 µM (inactive) | GI50 (SN12C): 11.5 µM (inactive) | GI50 (A498): 15.8 µM (inactive) | GI50 (786-0): 4.6 µM (inactive) | GI50 (MOLT-4): 3.37 µM (inactive) | GI50 (RXF 393): 4.79 µM (inactive) | GI50 (MCF7): 4.59 µM (inactive) | GI50 (SK-MEL-2): 15.5 µM (inactive) | GI50 (BT-549): 9.71 µM (inactive) | GI50 (EKVX): 16.9 µM (inactive) | GI50 (SK-MEL-28): 5.56 µM (inactive) | GI50 (DMS-114): 7.4 µM (inactive) | GI50 (ACHN): 11.2 µM (inactive) | GI50 (MDA-MB-435): 12.6 µM (inactive) | GI50 (HCT-116): 4.05 µM (inactive) | GI50 (Hs-578T): 13.2 µM (inactive) | GI50 (OVCAR-4): 6.01 µM (inactive) | GI50 (PC-3): 13.2 µM (inactive) | GI50 (HCT-15): 5.57 µM | GI50 (OVCAR-8): 4.71 µM (inactive) | GI50 (SNB-19): 18.3 µM (inactive) | GI50 (KM-20L2): 6.55 µM (inactive) | GI50 (NCI/ADR-RES): 11.3 µM (inactive) | GI50 (SK-MEL-5): 8.02 µM (inactive) | GI50 (UO-31): 13.6 µM (inactive) | GI50 (UACC-62): 9.89 µM (inactive) | GI50 (NCI-H23): 13.3 µM (inactive)
